In patent US8362070B2, “Application of puerarin in the preparation of P2X3 mediated drugs for pain/nervous system diseases” (Nanchang University, priority 2009, dated 2013):

Legend:
Assay type in all cases: in vivo, rat
P2X3 receptor [1] = experiment: Immunohistochemical analysis of P2X3 expression in dorsal root ganglion of burn rats; conditions: n=10
Description: SD rats (their body weights were 200±20 g) were randomly divided into the group I (sham back burn), the group II (Puerarin, intraperitoneal injection), the group III (superficial second degree back burn), the group IV (superficial second degree back burn+puerarin), the group V (control) and the group VI (superficial second degree back burn+Indocin). The rats in the group IV (superficial second degree back burn+puerarin) were subjected to intraperitoneal injection of puerarin (100 mg/kg) everyday for continuous three days 30 minutes before burn and after burn. Immunohistochemical analysis was used to detect the change in P2X3 expression in dorsal root ganglion in burn position of rats. Results of immunohistochemical analysis were subjected to analysis by using Hmias-2000 high-resolution color medical image analysis system.

P2X3 receptor mRNA = experiment: In situ hybridization of P2X3 receptor mRNA in dorsal root ganglion of CCI rats; conditions: L4/L5 DRG
P2X3 receptor [2] = experiment: Immunohistochemistry of P2X3 receptor expression in dorsal root ganglion of CCI rats; conditions: L4/L5 DRG
[3] = system: rats that suffer from superficial second degree foot burn; experiment: Mechanical hyperalgesia (mechanical withdrawal threshold) in rats with foot burn; conditions: for mechanical withdrawal threshold (MWT) in comparison to group III (burn) / mechanical withdrawal threshold (MWT) after 72 hours or 96 hours: superficial second degree foot burn + drug; for mechanical withdrawal threshold (MWT) in comparison to group III (burn): p<0.01; for mechanical withdrawal threshold (MWT) after 72 hours or 96 hours: vs groups I, II, V p>0.05
Source text: Male SD rats, 220-250 g, 60 rats were included, which were provided by the Department of Experimental Animals from the Medical College of Nanchang University, and the animals were divided into different groups at random. Group I was the group of sham burn in skin of feet; group II was the group of puerarin injection+first degree or superficial second degree burn in skin of feet; group III was the group of physiological saline+first degree or superficial second degree burn in skin of feet; group IV was the group of sham burn in skin of back; group V was the group of puerarin injection+first degree or superficial second degree burn in skin of back; group VI was the group of physiological saline+first degree or superficial second degree burn in skin of back. Puerarin injection was dissolved in physiological saline and the concentration was 50 mg/mL. vena caudalis injection of 4 mL/kg physiological saline was carried out for the rats in group III and […] 0.5 h before burn, and the injection was carried out once a day until the termination of the test; […], and the injection was carried out once a day until the termination of the test; skin of feet or back of the rats from group I and group IV (the sham burn group) were immersed in warm water of 37° C. for 8 seconds. After the rats were anesthetized by ether, their right posterior feet were immersed in hot water of 70° C. for 5 seconds or 8 seconds, then they were raised in separate cages after burn. The mechanical withdrawal threshold and the thermal withdrawal threshold in their right posterior feet were measured respectively before burn (Oh) and 1, 24, 48, 72, 96, 120, 144 hours after burn (the room temperature was maintained at 22±0.5° C.). BME-403 Von Frey fine thread was used to detect the mechanical withdrawal threshold (MWT). The rats were kept in transparent organic glass box (22×12×22 cm^3), and the bottom of the organic glass box was made of wire netting of 1×1 cm^2. The rats were raised in the laboratory after operations and they were kept in the organic glass box for accommodation for 15 min before the detection. The bending forces were 0.13, 0.20, 0.33, 0.60, 1.30, 3.60, 5.00, 7.30, 9.90, 20.1 g respectively. Each test was performed for ten times from the smallest bending force until the frequency of withdrawal was higher than 5/10, namely 50% reaction threshold (that was the value for inducing five reactions in ten tests). The biggest bending force was 20.1 g and bending forces≧20.1 g were recorded as 20.1 g. The interval between two stimulations was at least more than 15 seconds until the stimulation-induced reactions (such as licking feet and throwing legs) completely disappeared. BME-403 Von Frey fine thread was used to determine the mechanical withdrawal threshold (MWT). The rats were kept in transparent organic glass box (22×12×22 cm^3), and the bottom of the organic glass box was made of wire netting of 1×1 cm^2. The rats were raised in the laboratory after operations and they were kept in the organic glass box for accommodation for 15 minutes before the detection. The bending forces were 0.13, 0.20, 0.33, 0.60, 1.30, 3.60, 5.00, 7.30, 9.90, 20.1 g respectively, and bending forces≧20.1 g were recorded as 20.1 g. […]

P2X3 receptor [4] = experiment: Immunohistochemistry of P2X3 receptor expression in skin nerve ending of rats with back burn; conditions: superficial second degree back burn + puerarin injection i.v. daily for three days; saline+burn 152.63±22.62, sham 118.76±18.48
[5] = superficial second degree back burn + drug (puerarin 100 mg/kg i.p. three days), burn 1.21±0.04, control 1.03±0.02
[6] = CCI rats + drug, 14 days after operation, CCI 1.33±0.02, control 0.82±0.02
[7] = CCI rats + drug, 14 days after operation, CCI 1.64±0.05, control 1.15±0.03
[8] = puerarin alone, no CCI, 14 days

Row | Compound | average optical density (P2X3 expression, immunohistochemistry, DRG) (P2X3 receptor [1]; [5]) | average optical density of P2X3 positive neurons (P2X3 receptor mRNA, in situ hybridization) (P2X3 receptor mRNA; [6]) | average optical density of P2X3 positive neurons (P2X3 receptor, immunohistochemistry) (P2X3 receptor [2]; [7]) | mechanical withdrawal threshold (MWT) in comparison to group III (burn) [3] | mechanical withdrawal threshold (MWT) after 72 hours or 96 hours [3] | average optical density (P2X3 expression, immunohistochemistry, DRG) (P2X3 receptor [1]; puerarin alone i.p., no burn) | average optical density of P2X3 positive neurons (P2X3 receptor mRNA, in situ hybridization) (P2X3 receptor mRNA; [8]) | average optical density of P2X3 positive neurons (P2X3 receptor, immunohistochemistry) (P2X3 receptor [2]; [8]) | mechanical withdrawal threshold, comparison among sham, puerarin alone and control ([3]; puerarin alone i.p., no burn, p>0.05) | gray scale values (average optical density) of P2X3 immunologically positive nerve ending in the skin (P2X3 receptor [4])
1 | COc1ccc2c(c1)c(CC(=O)O)c(C)n2C(=O)c1ccc(Cl)cc1 [Indocin, Indometacin] | 1.16±0.03 | 1.14±0.01 | 1.34±0.04 | significantly decreased | almost recovered to normal level | – | – | – | – | –
2 | O=c1c(-c2ccc(O)cc2)coc2c([C@@H]3O[C@H](CO)[C@@H](O)[C@H](O)[C@H]3O)c(O)ccc12 [puerarin] | 1.10±0.02 | 0.98±0.05 | 1.28±0.04 | significantly decreased | almost recovered to normal level | 1.01±0.02 | 0.82±0.03 | 1.07±0.03 | no significant difference | 130.42±13.35
